Measured values from ChEMBL document CHEMBL1909046, “DrugMatrix in vitro pharmacology data”.

Key:
[1] = DRUGMATRIX: beta-Lactamase enzyme inhibition (substrate: Nitrocefin); parameters: species or system Bacillus cereus; settings: Not Active = under 50% inhibition at 10 µM
[2] = molecular target: T1, Muscarinic acetylcholine receptor M5 (Homo sapiens, UniProt P08912); assay type: cell membranes, CHO-K1, Membrane; settings: cho-k1; note: in other assays of this panel Not Active means under 50% inhibition at 10 µM
T1 sequence (P08912 whole entry): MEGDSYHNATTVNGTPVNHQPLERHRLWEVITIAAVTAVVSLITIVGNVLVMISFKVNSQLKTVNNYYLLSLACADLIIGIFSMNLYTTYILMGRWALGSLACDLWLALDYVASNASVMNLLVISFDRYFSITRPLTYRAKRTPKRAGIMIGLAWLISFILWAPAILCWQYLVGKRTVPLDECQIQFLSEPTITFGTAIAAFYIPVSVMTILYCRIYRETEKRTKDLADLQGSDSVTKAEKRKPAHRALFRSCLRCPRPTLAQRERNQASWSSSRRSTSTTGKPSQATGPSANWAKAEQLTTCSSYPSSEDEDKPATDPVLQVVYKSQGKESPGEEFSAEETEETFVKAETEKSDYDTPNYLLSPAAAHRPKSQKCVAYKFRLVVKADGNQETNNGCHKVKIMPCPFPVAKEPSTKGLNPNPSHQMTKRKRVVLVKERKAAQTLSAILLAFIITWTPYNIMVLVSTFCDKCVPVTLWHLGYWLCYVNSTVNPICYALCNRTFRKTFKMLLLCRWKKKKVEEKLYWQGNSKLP

[3] = molecular target: Sigma non-opioid intracellular receptor 1 (Homo sapiens, UniProt Q99720); assay: DRUGMATRIX: Sigma1 radioligand binding (ligand: [3H] Haloperidol); assay type: cell membranes, Jurkat, Membrane; settings: jurkat; Not Active = under 50% inhibition at 10 µM
Sequence of Sigma non-opioid intracellular receptor 1 (Q99720 whole entry): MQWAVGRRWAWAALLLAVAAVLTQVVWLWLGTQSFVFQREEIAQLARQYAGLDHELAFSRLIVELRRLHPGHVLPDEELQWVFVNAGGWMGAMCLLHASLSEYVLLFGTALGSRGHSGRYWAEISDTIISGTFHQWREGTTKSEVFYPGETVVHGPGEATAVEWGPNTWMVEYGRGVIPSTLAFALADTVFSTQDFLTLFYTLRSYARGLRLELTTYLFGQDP

[4] = molecular target: Tyrosine-protein kinase Lck (Homo sapiens, UniProt P06239); assay: DRUGMATRIX: Protein Tyrosine Kinase, LCK enzyme inhibition (substrate: Poly(Glu:Tyr)); assay type: cell-based, Insect cells; settings: insect cells; Not Active = under 50% inhibition at 10 µM
Sequence of Tyrosine-protein kinase Lck (P06239 whole entry): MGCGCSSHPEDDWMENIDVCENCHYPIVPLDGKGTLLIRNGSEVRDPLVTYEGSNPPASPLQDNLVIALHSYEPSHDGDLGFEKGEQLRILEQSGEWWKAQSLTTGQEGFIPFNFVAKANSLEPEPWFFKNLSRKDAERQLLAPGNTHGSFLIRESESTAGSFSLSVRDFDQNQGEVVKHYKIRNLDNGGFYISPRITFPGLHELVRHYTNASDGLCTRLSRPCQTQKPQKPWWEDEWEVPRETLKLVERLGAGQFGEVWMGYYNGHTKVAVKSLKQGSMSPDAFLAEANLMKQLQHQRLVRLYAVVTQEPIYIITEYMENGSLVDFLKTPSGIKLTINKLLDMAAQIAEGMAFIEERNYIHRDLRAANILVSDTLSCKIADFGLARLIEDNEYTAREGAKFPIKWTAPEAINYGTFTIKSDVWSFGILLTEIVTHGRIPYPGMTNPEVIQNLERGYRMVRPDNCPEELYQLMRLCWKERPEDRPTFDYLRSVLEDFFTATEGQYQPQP

[5] = DRUGMATRIX: Phosphodiesterase PDE3 enzyme inhibition (substrate: [3H]cAMP + cAMP); assay type: tissue-based, Homo sapiens; settings: platelet, Not Active = under 50% inhibition at 10 µM
[6] = molecular target: C-C chemokine receptor type 5 (Homo sapiens, UniProt P51681); assay type: cell membranes, HEK293, Membrane; settings: hek293; note: in other assays of this panel Not Active means under 50% inhibition at 10 µM
Sequence of C-C chemokine receptor type 5 (P51681 whole entry): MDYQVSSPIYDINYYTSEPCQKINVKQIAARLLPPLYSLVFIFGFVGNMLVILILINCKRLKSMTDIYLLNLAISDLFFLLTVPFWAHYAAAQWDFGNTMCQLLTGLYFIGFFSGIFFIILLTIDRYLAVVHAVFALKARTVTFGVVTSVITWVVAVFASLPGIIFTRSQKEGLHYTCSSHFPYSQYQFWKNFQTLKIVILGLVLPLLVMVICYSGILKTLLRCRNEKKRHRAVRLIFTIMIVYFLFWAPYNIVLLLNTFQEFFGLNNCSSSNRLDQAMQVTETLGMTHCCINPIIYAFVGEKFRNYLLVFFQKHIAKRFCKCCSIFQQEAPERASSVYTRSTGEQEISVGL

[7] = molecular target: T2, Neuropeptide Y receptor type 1 (Homo sapiens, UniProt P25929); assay type: cell membranes, Membrane; settings: sk-n-mc; note: in other assays of this panel Not Active means under 50% inhibition at 10 µM
T2 sequence (P25929 whole entry): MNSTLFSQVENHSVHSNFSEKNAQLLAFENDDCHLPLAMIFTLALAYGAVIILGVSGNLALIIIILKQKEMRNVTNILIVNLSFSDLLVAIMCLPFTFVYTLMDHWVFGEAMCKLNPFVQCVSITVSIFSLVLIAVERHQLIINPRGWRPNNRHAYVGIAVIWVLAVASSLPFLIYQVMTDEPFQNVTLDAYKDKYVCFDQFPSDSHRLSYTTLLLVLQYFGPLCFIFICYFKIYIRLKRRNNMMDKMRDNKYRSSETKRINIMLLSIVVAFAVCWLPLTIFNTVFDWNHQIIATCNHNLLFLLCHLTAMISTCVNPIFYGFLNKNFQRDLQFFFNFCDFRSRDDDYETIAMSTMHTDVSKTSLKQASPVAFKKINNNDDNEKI

C[C@@H]1[C@H](O)[C@@H](C)/C=C/C=C/C=C/C=C/C=C/C=C/C=C/[C@H](O[C@@H]2O[C@H](C)[C@@H](O)[C@H](N)[C@@H]2O)C[C@@H]2O[C@](O)(C[C@@H](O)C[C@@H](O)[C@H](O)CC[C@@H](O)C[C@@H](O)CC(=O)O[C@H]1C)C[C@H](O)[C@H]2C(=O)O [AMPHOTERICIN B]
IC50 [1]: Not Active
Ki [1]: Not Active
IC50 [2]: Not Active
IC50 [3]: Not Active
IC50 [4]: Not Active
IC50 [5]: Not Active
Ki [5]: Not Active
IC50 [6]: Not Active
IC50 [7]: Not Active

COc1cc(NC(C)CCCN)c2ncccc2c1 (centres undefined) [PRIMAQUINE]
IC50 [1]: Not Active
Ki [1]: Not Active
IC50 [2]: Not Active
IC50 [3]: Not Active
IC50 [4]: Not Active
IC50 [5]: Not Active
Ki [5]: Not Active
IC50 [6]: Not Active
IC50 [7]: Not Active

COc1cc(/C=C/C(=O)O)ccc1O [FERULATE]
IC50 [1]: Not Active
Ki [1]: Not Active
IC50 [2]: Not Active
IC50 [3]: Not Active
IC50 [4]: Not Active
IC50 [5]: Not Active
Ki [5]: Not Active
IC50 [6]: Not Active
IC50 [7]: Not Active

CNC[C@H](O)c1ccc(O)c(O)c1 [EPINEPHRINE]
IC50 [1]: Not Active
Ki [1]: Not Active
IC50 [2]: Not Active
IC50 [3]: Not Active
IC50 [4]: Not Active
IC50 [5]: Not Active
Ki [5]: Not Active
IC50 [6]: Not Active
IC50 [7]: Not Active

CCN1CCN(C(=O)N[C@@H](C(=O)N[C@@H]2C(=O)N3[C@@H]2SC(C)(C)[C@@H]3C(=O)O)c2ccccc2)C(=O)C1=O [PIPERACILLIN]
IC50 [1]: Not Active
Ki [1]: Not Active
IC50 [2]: Not Active
IC50 [3]: Not Active
IC50 [4]: Not Active
IC50 [5]: Not Active
Ki [5]: Not Active
IC50 [6]: Not Active
IC50 [7]: Not Active

C=CCN1CC[C@]23c4c5ccc(O)c4O[C@H]2/C(=N/N=C2\CC[C@@]4(O)[C@H]6Cc7ccc(O)c8c7[C@@]4(CCN6CC=C)[C@H]2O8)CC[C@@]3(O)[C@H]1C5 [NALOXONAZINE]
IC50 [1]: Not Active
Ki [1]: Not Active
IC50 [2]: Not Active
IC50 [3]: Not Active
IC50 [4]: Not Active
IC50 [5]: Not Active
Ki [5]: Not Active
IC50 [6]: Not Active
IC50 [7]: Not Active

c1ccc2c(c1)Nc1ccccc1S2 [PHENOTHIAZINE]
IC50 [1]: Not Active
Ki [1]: Not Active
IC50 [2]: Not Active
IC50 [3]: Not Active
IC50 [4]: Not Active
IC50 [5]: Not Active
Ki [5]: Not Active
IC50 [6]: Not Active
IC50 [7]: Not Active

Cl.NC[C@H]1CC[C@H](C(=O)Oc2ccc(CCC(=O)O)cc2)CC1 [CETRAXATE HYDROCHLORIDE]
IC50 [1]: Not Active
Ki [1]: Not Active
IC50 [2]: Not Active
IC50 [3]: Not Active
IC50 [4]: Not Active
IC50 [5]: Not Active
Ki [5]: Not Active
IC50 [6]: Not Active
IC50 [7]: Not Active

CN(CCOc1ccc(C[C@H](Nc2ccccc2C(=O)c2ccccc2)C(=O)O)cc1)c1ccccn1
IC50 [1]: Not Active
Ki [1]: Not Active
IC50 [2]: Not Active
IC50 [3]: Not Active
IC50 [4]: Not Active
IC50 ([5]; read-out: IC50): 19.4 µM
IC50 [6]: Not Active
IC50 [7]: Not Active

Nc1nc(F)nc2c1ncn2[C@@H]1O[C@H](CO)[C@@H](O)[C@@H]1O [FLUDARABINE]
IC50 [1]: Not Active
Ki [1]: Not Active
IC50 [2]: Not Active
IC50 [3]: Not Active
IC50 [4]: Not Active
IC50 [5]: Not Active
Ki [5]: Not Active
IC50 [6]: Not Active
IC50 [7]: Not Active
